Laboratory results taken from ChEMBL document CHEMBL5696441 (Nat Chem Biol, 2011).

Tests used:
[1] = tested on: Phosphatidylinositol 4,5-bisphosphate 3-kinase catalytic subunit alpha isoform (Homo sapiens), P42336 [H1047L]; assay: Inhibition of PIK3CA H1047L mutant (unknown origin) assessed as remaining activity at 1 uM by Kinome scan method relative to control
[2] = target: Maternal embryonic leucine zipper kinase (Homo sapiens) (UniProt Q14680); assay: Inhibition of MELK (unknown origin) assessed as remaining activity at 1 uM by Kinome scan method relative to control
[3] = target: Casein kinase II subunit alpha (Homo sapiens) (UniProt P68400); assay: Inhibition of CSNK2A1 (unknown origin) assessed as remaining activity at 1 uM by Kinome scan method relative to control
[4] = target: Cyclin-dependent kinase 11B (Homo sapiens) (UniProt P21127); assay: Inhibition of CDC2L1 (unknown origin) assessed as remaining activity at 1 uM by Kinome scan method relative to control
[5] = target: Fibroblast growth factor receptor 3 (Homo sapiens) (UniProt P22607); assay: Inhibition of FGFR3 (unknown origin) assessed as remaining activity at 1 uM by Kinome scan method relative to control
[6] = target: Interleukin-1 receptor-associated kinase 1 (Homo sapiens) (UniProt P51617); assay: Inhibition of IRAK1 (unknown origin) assessed as remaining activity at 1 uM by Kinome scan method relative to control
[7] = target: Mitogen-activated protein kinase kinase kinase 12 (Homo sapiens) (UniProt Q12852); assay: Inhibition of DLK (unknown origin) assessed as remaining activity at 1 uM by Kinome scan method relative to control
[8] = target: Interferon-induced, double-stranded RNA-activated protein kinase (Homo sapiens) (UniProt P19525); assay: Inhibition of PRKR (unknown origin) assessed as remaining activity at 1 uM by Kinome scan method relative to control
[9] = target: Mitogen-activated protein kinase 14 (Homo sapiens) (UniProt Q16539); assay: Inhibition of non-phosphorylated human N-terminal His-P38alpha overexpressed in Escherichia coli BL21 (DE3) assessed as remaining activity at 1 uM by Kinome scan method relative to control
[10] = target: T1, Serine/threonine-protein kinase Chk1 (Homo sapiens) (UniProt O14757); assay: Inhibition of CHEK1 (unknown origin) assessed as remaining activity at 1 uM by Kinome scan method relative to control
T1 sequence (whole entry): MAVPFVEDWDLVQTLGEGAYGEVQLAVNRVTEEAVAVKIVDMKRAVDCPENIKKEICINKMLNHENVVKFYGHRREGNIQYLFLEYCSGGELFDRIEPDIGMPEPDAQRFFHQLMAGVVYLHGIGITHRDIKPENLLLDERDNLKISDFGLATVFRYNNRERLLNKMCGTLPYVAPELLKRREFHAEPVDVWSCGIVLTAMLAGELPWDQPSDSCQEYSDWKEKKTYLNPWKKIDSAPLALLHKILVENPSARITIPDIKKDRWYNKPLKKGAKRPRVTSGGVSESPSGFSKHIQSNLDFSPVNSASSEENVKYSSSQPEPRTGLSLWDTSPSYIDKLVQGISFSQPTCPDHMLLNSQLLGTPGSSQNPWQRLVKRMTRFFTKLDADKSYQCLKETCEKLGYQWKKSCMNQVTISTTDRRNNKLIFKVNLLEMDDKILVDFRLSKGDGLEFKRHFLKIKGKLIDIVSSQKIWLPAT

[11] = target: Cyclin-G-associated kinase (Homo sapiens) (UniProt O14976); assay: Inhibition of GAK (unknown origin) assessed as remaining activity at 1 uM by Kinome scan method relative to control
[12] = target: Phosphatidylinositol 4,5-bisphosphate 3-kinase catalytic subunit delta isoform (Homo sapiens) (UniProt O00329); assay: Inhibition of PIK3CD (unknown origin) assessed as remaining activity at 1 uM by Kinome scan method relative to control
[13] = target: cAMP-dependent protein kinase catalytic subunit beta (Homo sapiens) (UniProt P22694); assay: Inhibition of PKAC-beta (unknown origin) assessed as remaining activity at 1 uM by Kinome scan method relative to control
[14] = target: Death-associated protein kinase 1 (Homo sapiens) (UniProt P53355); assay: Inhibition of DAPK1 (unknown origin) assessed as remaining activity at 1 uM by Kinome scan method relative to control
[15] = target: T2, Ephrin type-A receptor 1 (Homo sapiens) (UniProt P21709); assay: Inhibition of EPHA1 (unknown origin) assessed as remaining activity at 1 uM by Kinome scan method relative to control
T2 sequence (whole entry): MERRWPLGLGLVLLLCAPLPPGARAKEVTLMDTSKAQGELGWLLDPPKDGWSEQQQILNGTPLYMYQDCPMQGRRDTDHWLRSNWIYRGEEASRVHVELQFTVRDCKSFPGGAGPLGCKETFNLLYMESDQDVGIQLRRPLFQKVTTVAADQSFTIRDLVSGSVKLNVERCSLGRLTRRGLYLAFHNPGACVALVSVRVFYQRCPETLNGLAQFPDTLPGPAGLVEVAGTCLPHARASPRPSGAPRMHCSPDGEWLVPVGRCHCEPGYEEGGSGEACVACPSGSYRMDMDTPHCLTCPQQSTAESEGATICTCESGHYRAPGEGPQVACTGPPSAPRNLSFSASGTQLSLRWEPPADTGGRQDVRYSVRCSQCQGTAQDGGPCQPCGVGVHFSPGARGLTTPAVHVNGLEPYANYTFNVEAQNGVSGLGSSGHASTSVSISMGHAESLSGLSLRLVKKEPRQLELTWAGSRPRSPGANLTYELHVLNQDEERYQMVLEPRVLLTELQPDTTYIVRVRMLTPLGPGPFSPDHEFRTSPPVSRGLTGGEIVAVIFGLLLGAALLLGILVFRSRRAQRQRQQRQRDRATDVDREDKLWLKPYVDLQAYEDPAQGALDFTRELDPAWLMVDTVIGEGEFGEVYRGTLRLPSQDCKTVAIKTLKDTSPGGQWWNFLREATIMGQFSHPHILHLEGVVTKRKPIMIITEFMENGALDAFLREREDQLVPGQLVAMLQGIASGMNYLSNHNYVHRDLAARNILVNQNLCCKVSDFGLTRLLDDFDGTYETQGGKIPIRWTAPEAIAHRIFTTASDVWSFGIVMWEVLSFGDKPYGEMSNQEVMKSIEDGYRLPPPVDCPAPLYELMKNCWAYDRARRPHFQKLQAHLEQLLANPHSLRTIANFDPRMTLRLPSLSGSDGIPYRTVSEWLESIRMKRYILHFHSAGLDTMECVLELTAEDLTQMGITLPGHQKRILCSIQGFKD

[16] = target: Mitogen-activated protein kinase kinase kinase kinase 1 (Homo sapiens) (UniProt Q92918); assay: Inhibition of HPK1 (unknown origin) assessed as remaining activity at 1 uM by Kinome scan method relative to control
[17] = target: Cyclin-dependent kinase 17 (Homo sapiens) (UniProt Q00537); assay: Inhibition of PCTK2 (unknown origin) assessed as remaining activity at 1 uM by Kinome scan method relative to control
[18] = target: Rhodopsin kinase GRK1 (Homo sapiens) (UniProt Q15835); assay: Inhibition of GRK1 (unknown origin) assessed as remaining activity at 1 uM by Kinome scan method relative to control
Chain of Rhodopsin kinase GRK1 (Homo sapiens) (Q15835 whole entry): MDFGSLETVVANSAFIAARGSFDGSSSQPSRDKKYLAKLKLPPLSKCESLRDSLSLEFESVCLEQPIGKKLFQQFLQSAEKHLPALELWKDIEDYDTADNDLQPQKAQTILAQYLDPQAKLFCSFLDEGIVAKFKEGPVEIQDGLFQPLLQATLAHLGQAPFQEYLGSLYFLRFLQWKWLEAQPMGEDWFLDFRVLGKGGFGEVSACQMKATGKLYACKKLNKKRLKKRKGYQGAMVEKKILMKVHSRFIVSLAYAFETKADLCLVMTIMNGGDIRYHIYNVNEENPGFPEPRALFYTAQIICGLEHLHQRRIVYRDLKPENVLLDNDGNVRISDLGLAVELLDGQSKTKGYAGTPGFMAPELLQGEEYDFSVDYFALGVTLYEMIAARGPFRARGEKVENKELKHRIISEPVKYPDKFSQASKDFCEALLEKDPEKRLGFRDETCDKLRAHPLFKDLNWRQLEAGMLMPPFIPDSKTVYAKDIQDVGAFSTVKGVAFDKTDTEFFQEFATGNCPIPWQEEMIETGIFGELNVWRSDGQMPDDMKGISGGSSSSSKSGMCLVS

Chain of Casein kinase II subunit alpha (Homo sapiens) (P68400 whole entry, looked up): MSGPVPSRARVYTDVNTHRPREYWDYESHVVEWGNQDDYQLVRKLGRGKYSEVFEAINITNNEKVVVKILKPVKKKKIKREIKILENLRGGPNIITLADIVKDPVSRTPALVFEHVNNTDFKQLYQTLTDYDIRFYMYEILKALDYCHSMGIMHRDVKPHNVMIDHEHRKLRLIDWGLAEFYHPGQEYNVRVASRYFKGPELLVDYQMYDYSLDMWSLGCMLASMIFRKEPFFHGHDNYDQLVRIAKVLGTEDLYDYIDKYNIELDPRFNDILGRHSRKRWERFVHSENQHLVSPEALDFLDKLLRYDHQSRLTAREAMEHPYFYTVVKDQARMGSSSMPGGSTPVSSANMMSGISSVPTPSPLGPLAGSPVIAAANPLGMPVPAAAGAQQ
Chain of Phosphatidylinositol 4,5-bisphosphate 3-kinase catalytic subunit delta isoform (Homo sapiens) (O00329 whole entry, canonical isoform): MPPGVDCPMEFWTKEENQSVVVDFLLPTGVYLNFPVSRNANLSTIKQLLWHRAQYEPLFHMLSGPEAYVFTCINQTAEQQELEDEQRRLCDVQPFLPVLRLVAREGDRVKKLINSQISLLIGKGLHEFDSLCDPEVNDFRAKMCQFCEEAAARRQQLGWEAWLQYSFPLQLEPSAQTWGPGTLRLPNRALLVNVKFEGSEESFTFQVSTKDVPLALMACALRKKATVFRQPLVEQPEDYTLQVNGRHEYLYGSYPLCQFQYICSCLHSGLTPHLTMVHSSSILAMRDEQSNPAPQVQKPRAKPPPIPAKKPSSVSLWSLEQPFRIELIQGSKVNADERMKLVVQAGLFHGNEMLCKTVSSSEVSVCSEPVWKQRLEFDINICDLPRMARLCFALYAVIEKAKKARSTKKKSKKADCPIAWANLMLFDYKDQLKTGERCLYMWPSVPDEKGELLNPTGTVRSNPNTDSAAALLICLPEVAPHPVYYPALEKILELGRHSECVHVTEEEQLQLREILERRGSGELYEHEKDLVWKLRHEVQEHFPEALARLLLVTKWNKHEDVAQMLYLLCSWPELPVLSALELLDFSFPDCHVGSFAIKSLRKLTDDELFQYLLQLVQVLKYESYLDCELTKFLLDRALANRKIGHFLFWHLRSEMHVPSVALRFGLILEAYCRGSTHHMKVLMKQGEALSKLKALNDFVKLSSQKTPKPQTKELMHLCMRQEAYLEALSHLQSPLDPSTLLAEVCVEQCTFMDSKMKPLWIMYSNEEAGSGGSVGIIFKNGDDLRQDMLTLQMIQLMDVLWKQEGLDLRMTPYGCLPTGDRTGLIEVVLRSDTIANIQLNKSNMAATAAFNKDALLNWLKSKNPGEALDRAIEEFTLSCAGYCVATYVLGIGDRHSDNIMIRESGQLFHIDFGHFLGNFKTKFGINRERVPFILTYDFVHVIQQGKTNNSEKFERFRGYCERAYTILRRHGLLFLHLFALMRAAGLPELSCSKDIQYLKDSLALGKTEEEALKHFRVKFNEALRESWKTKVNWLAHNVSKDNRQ
Chain of Interferon-induced, double-stranded RNA-activated protein kinase (Homo sapiens) (P19525 whole entry): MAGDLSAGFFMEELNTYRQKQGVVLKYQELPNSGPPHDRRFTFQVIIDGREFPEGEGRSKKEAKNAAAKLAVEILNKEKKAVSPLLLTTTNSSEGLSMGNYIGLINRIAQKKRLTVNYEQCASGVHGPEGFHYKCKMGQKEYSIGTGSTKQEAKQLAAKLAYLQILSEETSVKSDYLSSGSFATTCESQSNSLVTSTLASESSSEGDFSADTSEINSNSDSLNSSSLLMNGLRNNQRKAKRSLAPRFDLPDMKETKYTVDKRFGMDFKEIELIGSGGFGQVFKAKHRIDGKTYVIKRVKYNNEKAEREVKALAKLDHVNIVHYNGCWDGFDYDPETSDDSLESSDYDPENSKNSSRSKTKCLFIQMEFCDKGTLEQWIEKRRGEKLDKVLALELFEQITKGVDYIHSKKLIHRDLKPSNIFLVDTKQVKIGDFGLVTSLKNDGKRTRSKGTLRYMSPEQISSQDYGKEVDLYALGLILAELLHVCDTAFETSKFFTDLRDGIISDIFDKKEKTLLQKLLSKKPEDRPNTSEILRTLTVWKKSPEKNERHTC
Chain of Cyclin-G-associated kinase (Homo sapiens) (O14976 whole entry, canonical isoform): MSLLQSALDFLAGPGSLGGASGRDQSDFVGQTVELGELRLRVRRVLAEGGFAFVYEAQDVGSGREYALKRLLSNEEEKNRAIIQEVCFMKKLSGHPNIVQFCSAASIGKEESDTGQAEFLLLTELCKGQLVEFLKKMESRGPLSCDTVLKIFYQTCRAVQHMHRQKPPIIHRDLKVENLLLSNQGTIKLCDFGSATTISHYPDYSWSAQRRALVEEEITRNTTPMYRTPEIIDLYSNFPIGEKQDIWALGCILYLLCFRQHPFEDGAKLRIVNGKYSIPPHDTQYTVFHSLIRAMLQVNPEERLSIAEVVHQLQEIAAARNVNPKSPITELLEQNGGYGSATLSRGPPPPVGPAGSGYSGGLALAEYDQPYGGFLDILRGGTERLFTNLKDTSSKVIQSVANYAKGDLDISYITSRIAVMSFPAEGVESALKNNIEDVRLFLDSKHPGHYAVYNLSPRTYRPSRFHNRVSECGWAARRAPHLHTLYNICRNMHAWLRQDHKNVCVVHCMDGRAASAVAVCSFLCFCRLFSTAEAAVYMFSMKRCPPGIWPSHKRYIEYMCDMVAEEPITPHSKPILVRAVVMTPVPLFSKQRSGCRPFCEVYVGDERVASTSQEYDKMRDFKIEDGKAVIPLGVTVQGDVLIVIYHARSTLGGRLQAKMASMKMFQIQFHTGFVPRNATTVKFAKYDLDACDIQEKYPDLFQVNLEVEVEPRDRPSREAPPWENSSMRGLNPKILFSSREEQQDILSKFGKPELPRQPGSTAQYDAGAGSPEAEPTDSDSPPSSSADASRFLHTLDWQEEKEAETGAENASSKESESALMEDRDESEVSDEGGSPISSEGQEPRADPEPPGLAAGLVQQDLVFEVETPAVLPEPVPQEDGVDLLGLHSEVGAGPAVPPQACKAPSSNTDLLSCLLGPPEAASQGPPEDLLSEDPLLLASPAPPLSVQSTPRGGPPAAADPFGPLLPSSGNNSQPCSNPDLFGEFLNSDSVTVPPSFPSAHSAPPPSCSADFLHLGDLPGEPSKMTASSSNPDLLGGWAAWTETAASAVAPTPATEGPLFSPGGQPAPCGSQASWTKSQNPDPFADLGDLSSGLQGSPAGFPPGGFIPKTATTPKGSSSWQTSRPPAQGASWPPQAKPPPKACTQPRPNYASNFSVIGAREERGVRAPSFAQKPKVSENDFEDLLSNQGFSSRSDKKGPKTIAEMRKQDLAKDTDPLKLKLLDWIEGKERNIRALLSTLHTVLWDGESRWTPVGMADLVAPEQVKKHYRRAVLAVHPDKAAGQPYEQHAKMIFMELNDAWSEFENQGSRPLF
Chain of Phosphatidylinositol 4,5-bisphosphate 3-kinase catalytic subunit alpha isoform (Homo sapiens), P42336 [H1047L] (P42336 whole entry H1047L, canonical isoform): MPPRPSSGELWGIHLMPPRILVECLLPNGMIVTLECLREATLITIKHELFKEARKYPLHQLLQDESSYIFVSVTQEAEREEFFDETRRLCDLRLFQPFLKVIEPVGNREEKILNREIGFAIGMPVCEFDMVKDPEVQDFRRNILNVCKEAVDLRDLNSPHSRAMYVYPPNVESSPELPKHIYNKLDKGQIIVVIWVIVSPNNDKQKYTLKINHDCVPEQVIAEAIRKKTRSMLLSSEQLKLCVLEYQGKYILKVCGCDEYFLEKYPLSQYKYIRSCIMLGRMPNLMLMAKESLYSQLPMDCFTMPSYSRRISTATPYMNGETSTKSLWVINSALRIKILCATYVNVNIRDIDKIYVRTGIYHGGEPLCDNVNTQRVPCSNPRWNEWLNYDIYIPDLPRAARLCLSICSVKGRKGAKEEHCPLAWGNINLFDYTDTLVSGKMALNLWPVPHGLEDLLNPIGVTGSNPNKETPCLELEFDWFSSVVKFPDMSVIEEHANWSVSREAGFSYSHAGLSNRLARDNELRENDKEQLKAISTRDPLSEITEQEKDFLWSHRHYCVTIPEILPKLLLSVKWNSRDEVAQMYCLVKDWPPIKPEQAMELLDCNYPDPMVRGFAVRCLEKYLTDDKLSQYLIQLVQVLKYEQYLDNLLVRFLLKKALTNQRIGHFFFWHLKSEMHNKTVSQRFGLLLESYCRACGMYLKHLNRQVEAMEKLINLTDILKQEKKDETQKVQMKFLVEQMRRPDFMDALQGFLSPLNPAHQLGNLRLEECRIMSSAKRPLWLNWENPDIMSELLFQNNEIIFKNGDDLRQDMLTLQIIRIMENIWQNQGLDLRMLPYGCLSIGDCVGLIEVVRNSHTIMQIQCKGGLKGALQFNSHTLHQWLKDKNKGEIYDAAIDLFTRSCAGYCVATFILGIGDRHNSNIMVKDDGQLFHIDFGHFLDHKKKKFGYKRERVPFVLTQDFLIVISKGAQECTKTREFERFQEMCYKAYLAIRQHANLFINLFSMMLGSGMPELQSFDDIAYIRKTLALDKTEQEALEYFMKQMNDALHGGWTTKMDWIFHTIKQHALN

Compound | Activity [1] | Activity [2] | Activity [3] | Activity [4] | Activity [5] | Activity [6] | Activity [7] | Activity [8] | Activity [9] | Activity [10] | Activity [11] | Activity [12] | Activity [13] | Activity [14] | Activity [15] | Activity [16] | Activity [17] | Activity [18]
Nc1ccccc1Nc1ccc2c(c1)CCc1ccccc1C2=O | 84% | 86% | 86% | 94% | 77% | 75% | 98% | 86% | 0.2% | 86% | 93% | 62% | 88% | 95% | 98% | 96% | 93% | 84%
O=C1c2ccc(Nc3ccc(F)cc3F)cc2CCc2ccc(OC[C@H](O)CO)cc21 [Skepinone-L] | 95% | 94% | 96% | 99% | 95% | 100% | 94% | 82% | 0.2% | 94% | 53% | 70% | 74% | 100% | 91% | 85% | 89% | 76%
